Earlier results as cited in patent publication US20020046426A1, “Application of carbonyl compounds in the process of tanning hides” (RHODIA BRASIL LTDA., priority 1999, published 2002).

Legend:
mice = conditions: mouse, in vivo, po

Structure (SMILES) | LD50 (mice) [mg/kg] | irritation to the eyes (eyes)
CC(O)CC=O (centres unmarked) [aldol, 3-hydroxyl butanal] | 2180 | 
C/C=C/C=O [crotonaldehyde, 2-butenal] |  | extremely irritant to the eyes
